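Where inhibition never reached the appropriate level, the endpoint shown equals the highest concentration tested. Otherwise, values were interpolated linearly from a five-concentration, 48-hour dose response in 96-well plates. GI50 = concentration required for 50% inhibition of growth.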 The source made the active and inactive calls. No stated cut-off is given here; in the data, active = GI50 up to about 1.1 µM and inactive = higher.
Key:
Experiment in all cases: NCI-60 cell line screen, 48 h
NCI-H226 = tested on: NCI-H226
NCI-H460 = tested on: NCI-H460
MOLT-4 = tested on: MOLT-4
SF-268 = tested on: SF-268
Hs-578T = tested on: Hs-578T
T47D = tested on: T47D
NCI/ADR-RES = tested on: NCI/ADR-RES
RPMI-8226 = tested on: RPMI-8226
EKVX = tested on: EKVX
ACHN = tested on: ACHN
NCI-H522 = tested on: NCI-H522
A498 = tested on: A498
MDA-N = tested on: MDA-N
UO-31 = tested on: UO-31
SR = tested on: SR
786-0 = tested on: 786-0
K562 = tested on: K562
COLO 205 = tested on: COLO 205
SN12C = tested on: SN12C
Malme-3M = tested on: Malme-3M
HCT-15 = tested on: HCT-15
MDA-MB-435 = tested on: MDA-MB-435
OVCAR-8 = tested on: OVCAR-8
SK-OV-3 = tested on: SK-OV-3
HOP-92 = tested on: HOP-92
M14 = tested on: M14
IGROV-1 = tested on: IGROV-1
HCT-116 = tested on: HCT-116
SF-539 = tested on: SF-539
CCRF-CEM = tested on: CCRF-CEM
SW-620 = tested on: SW-620
A549 = tested on: A549
CAKI-1 = tested on: CAKI-1
MCF7 = tested on: MCF7
LOX IMVI = tested on: LOX IMVI
PC-3 = tested on: PC-3
SNB-19 = tested on: SNB-19
OVCAR-5 = tested on: OVCAR-5
SK-MEL-28 = tested on: SK-MEL-28
MDA-MB-231 = tested on: MDA-MB-231
SF-295 = tested on: SF-295
HT-29 = tested on: HT-29
NCI-H23 = tested on: NCI-H23
DU-145 = tested on: DU-145
RXF 393 = tested on: RXF 393
UACC-62 = tested on: UACC-62
SNB-75 = tested on: SNB-75
BT-549 = tested on: BT-549
OVCAR-3 = tested on: OVCAR-3
TK-10 = tested on: TK-10
SK-MEL-2 = tested on: SK-MEL-2
UACC-257 = tested on: UACC-257
HL-60 = tested on: HL-60
OVCAR-4 = tested on: OVCAR-4
KM12 = tested on: KM12
SK-MEL-5 = tested on: SK-MEL-5
HOP-62 = tested on: HOP-62
U-251 = tested on: U-251
HCC 2998 = tested on: HCC 2998

Compound: O=C(O)c1nnsc1-c1ccc(-c2snnc2C(=O)O)cc1
- GI50 (NCI-H226): > 100 µM (inactive)
- GI50 (NCI-H460): 32.1 µM (inactive)
- GI50 (MOLT-4): 17.4 µM (inactive)
- GI50 (SF-268): > 100 µM (inactive)
- GI50 (Hs-578T): > 100 µM (inactive)
- GI50 (T47D): > 100 µM (inactive)
- GI50 (NCI/ADR-RES): > 100 µM (inactive)
- GI50 (RPMI-8226): 29.4 µM (inactive)
- GI50 (EKVX): 91.6 µM (inactive)
- GI50 (ACHN): > 100 µM (inactive)
- GI50 (NCI-H522): 56.6 µM (inactive)
- GI50 (A498): > 100 µM (inactive)
- GI50 (MDA-N): > 100 µM (inactive)
- GI50 (UO-31): > 100 µM (inactive)
- GI50 (SR): 10.5 µM (inactive)
- GI50 (786-0): 43.2 µM (inactive)
- GI50 (K562): 28.5 µM (inactive)
- GI50 (COLO 205): > 100 µM (inactive)
- GI50 (SN12C): > 100 µM (inactive)
- GI50 (Malme-3M): 56.8 µM (inactive)
- GI50 (HCT-15): 42 µM
- GI50 (MDA-MB-435): 48.2 µM (inactive)
- GI50 (OVCAR-8): > 100 µM (inactive)
- GI50 (SK-OV-3): > 100 µM (inactive)
- GI50 (HOP-92): 68.4 µM (inactive)
- GI50 (M14): > 100 µM (inactive)
- GI50 (IGROV-1): > 100 µM (inactive)
- GI50 (HCT-116): > 100 µM (inactive)
- GI50 (SF-539): 33.7 µM (inactive)
- GI50 (CCRF-CEM): 2.94 µM (inactive)
- GI50 (SW-620): 39.5 µM (inactive)
- GI50 (A549): > 100 µM (inactive)
- GI50 (CAKI-1): 58.7 µM (inactive)
- GI50 (MCF7): 27.7 µM (inactive)
- GI50 (LOX IMVI): 31.8 µM (inactive)
- GI50 (PC-3): 85.9 µM (inactive)
- GI50 (SNB-19): > 100 µM (inactive)
- GI50 (OVCAR-5): > 100 µM (inactive)
- GI50 (SK-MEL-28): > 100 µM (inactive)
- GI50 (MDA-MB-231): > 100 µM (inactive)
- GI50 (SF-295): > 100 µM (inactive)
- GI50 (HT-29): > 100 µM (inactive)
- GI50 (NCI-H23): > 100 µM (inactive)
- GI50 (DU-145): > 100 µM (inactive)
- GI50 (RXF 393): > 100 µM (inactive)
- GI50 (UACC-62): > 100 µM (inactive)
- GI50 (SNB-75): > 100 µM (inactive)
- GI50 (BT-549): > 100 µM (inactive)
- GI50 (OVCAR-3): 91.2 µM (inactive)
- GI50 (TK-10): > 100 µM (inactive)
- GI50 (SK-MEL-2): > 100 µM (inactive)
- GI50 (UACC-257): > 100 µM (inactive)
- GI50 (HL-60): 37.7 µM (inactive)
- GI50 (OVCAR-4): 29.6 µM (inactive)
- GI50 (KM12): > 100 µM (inactive)
- GI50 (SK-MEL-5): > 100 µM (inactive)
- GI50 (HOP-62): > 100 µM (inactive)
- GI50 (U-251): > 100 µM (inactive)

Compound: Cc1ccc2sc3ccc(N)cc3c(=O)c2c1
- GI50 (NCI-H226): 82.4 µM (inactive)
- GI50 (NCI-H460): 41.3 µM (inactive)
- GI50 (MOLT-4): 11.4 µM (inactive)
- GI50 (SF-268): > 100 µM (inactive)
- GI50 (Hs-578T): 47.2 µM (inactive)
- GI50 (T47D): 14.9 µM (inactive)
- GI50 (NCI/ADR-RES): 53.2 µM (inactive)
- GI50 (EKVX): 21.1 µM (inactive)
- GI50 (ACHN): 37.8 µM (inactive)
- GI50 (NCI-H522): 30.3 µM (inactive)
- GI50 (A498): 22.4 µM (inactive)
- GI50 (MDA-N): 26.8 µM (inactive)
- GI50 (UO-31): 29 µM (inactive)
- GI50 (SR): 68.2 µM (inactive)
- GI50 (786-0): 54.5 µM (inactive)
- GI50 (K562): 37.6 µM (inactive)
- GI50 (COLO 205): 42.5 µM (inactive)
- GI50 (SN12C): 81.1 µM (inactive)
- GI50 (HCC 2998): 37.2 µM (inactive)
- GI50 (HCT-15): 24.8 µM
- GI50 (MDA-MB-435): 36.9 µM (inactive)
- GI50 (OVCAR-8): > 100 µM (inactive)
- GI50 (SK-OV-3): 41.6 µM (inactive)
- GI50 (HOP-92): 32.9 µM (inactive)
- GI50 (M14): 90.2 µM (inactive)
- GI50 (IGROV-1): 33.8 µM (inactive)
- GI50 (HCT-116): 33.8 µM (inactive)
- GI50 (SF-539): 53.2 µM (inactive)
- GI50 (CCRF-CEM): 40.3 µM (inactive)
- GI50 (SW-620): 62.1 µM (inactive)
- GI50 (A549): 54.2 µM (inactive)
- GI50 (CAKI-1): 30.7 µM (inactive)
- GI50 (MCF7): 26.5 µM (inactive)
- GI50 (LOX IMVI): 28.1 µM (inactive)
- GI50 (PC-3): 55.1 µM (inactive)
- GI50 (SNB-19): > 100 µM (inactive)
- GI50 (OVCAR-5): > 100 µM (inactive)
- GI50 (SK-MEL-28): > 100 µM (inactive)
- GI50 (MDA-MB-231): 86.7 µM (inactive)
- GI50 (SF-295): 40.4 µM (inactive)
- GI50 (HT-29): 30.2 µM (inactive)
- GI50 (NCI-H23): 81.8 µM (inactive)
- GI50 (DU-145): 53 µM (inactive)
- GI50 (RXF 393): 38.5 µM (inactive)
- GI50 (UACC-62): 51.9 µM (inactive)
- GI50 (BT-549): 51.9 µM (inactive)
- GI50 (OVCAR-3): 32 µM (inactive)
- GI50 (TK-10): > 100 µM (inactive)
- GI50 (SK-MEL-2): 53.6 µM (inactive)
- GI50 (UACC-257): > 100 µM (inactive)
- GI50 (HL-60): 33.7 µM (inactive)
- GI50 (OVCAR-4): 63.5 µM (inactive)
- GI50 (KM12): 20.7 µM (inactive)
- GI50 (SK-MEL-5): 51.9 µM (inactive)
- GI50 (HOP-62): 32.8 µM (inactive)
- GI50 (U-251): 61.2 µM (inactive)
